Data: US20240000769A1, “AMORPHOUS SOLID DISPERSIONS” (UCB Biopharma SRL, priority 2020, published 2024)
Values after ≈ are worked out from the molar mass of the structure shown. Read-outs that look alike come from different tables or passages of the source.

Legend:
[1] = Dynamic dissolution profile, USP Apparatus 2, simulated gastric media then FaSSIF-V2; assay type: physicochemical; conditions: 37° C., 30 min 0.1N HCl (1 mg/mL) then 180 min FaSSIF-V2 (0.5 mg/mL)
Description: The dissolution profile was determined in a USP Apparatus 2 type (Distek 2100 C Dissolution Apparatus) at 37° C. The dynamic dissolution test includes first a 30 minutes dissolution in simulated gastric media (0.1N HCl) to achieve a concentration equivalent to a concentration of compound of formula (I) of 1 mg/mL, followed by a 180 minutes dissolution in FaSSIF-V2 to achieve a concentration equivalent to a concentration of compound of formula (I) of 0.5 mg/mL.
Then, 50 mL of simulated gastric media (0.1N HCl) was added to the vessel and the paddle speed was fixed at 100 rpm. After 30 minutes, an equivalent volume (50 mL) of fasted state biorelevant media was added to the vessel to obtain the composition of FaSSIF-V2. Dissolution was carried out in triplicate (n=3). At each timepoint, the suspension was filtered through a 0.45-μm ultra free filter (Merck Millipore) and the content of compound of formula (I) was determined by HPLC. The filtrate was then diluted with a suitable organic solvent.

[2] = Shake flask solubility (24 h) in buffer/biorelevant media; assay type: physicochemical; conditions: thermodynamic from solid, n=3, read-out: Solubility Measurements (24 h)
Description: The respective solubility of compounds of formula (Ia) and ASD1 was determined in different media while using the shake flask method. An excess of solid (equivalent to a concentration of compound of formula (I) of 5 mg/mL) was suspended in 5 mL of buffer/biorelevant media as specifically described in Table 4 and incubated in a sealed glass vial (10 mL) for 24 h at both RT and 37° C. in a climatic chamber equipped with a rotary mixer. The 24h time point was assumed to have reached solubility, at which time the suspension was filtered through a 0.45-μm ultra free filter (Merck Millipore) and the drug content was determined by HPLC. The solubility of compound (Ia) and ASD1 was determined in triplicate (n=3). Where required to prevent drug precipitation, the filtrate was diluted with a suitable organic solvent. […] These media are respectively a phosphate buffer, FasSGF, FASSIF-V2 and FeSSIF-V2. FasSG is fasted condition gastric fluid. FasSGF is prepared at pH 1.6 and contains 0.08 mM Taurocholate, 0.02 mM phospholipids, 34 mM sodium and 59 mM chloride. FaSSIF-V2 and FeSSIF-V2 are Fasted and Fed State Biorelevant Media, respectively. FaSSIF-V2 is prepared at pH 6.5 and contains 3 mM Taurocholate, 0.2 mM Phospholipids, 106 mM Sodium, 69 mM Chloride and 19 mM Maleic acid. FeSSIF-V2 is prepared at pH 5.8 and contains 10 mM Taurocholate, 2 mM Phospholipids, 0.8 mM Oleate, 5 mM Glycerol monoleate, 218 mM Sodium, 125 mM Chloride and 55 mM Maleic acid.

For `C[C@H]1c2cccc(C(C)(C)O)c2C[C@H](CO)N1C(=O)Cc1c(Cl)ccc2c1c(Cl)nn2C` [Compound (Ia), 2-(3,5-dichloro-1-methyl-indazol-4-yl)-1-[(1S,3R)-3-(hydroxymethyl)-5-(1-hydroxy-1-methyl-ethyl)-1-methyl-3,4-dihydro-1H-isoquinolin-2-yl]ethanone], the “dissolution profile over time” value [1] was “drops in gastric media to very low levels”, the solubility at 24 h ([2]; aqueous buffer, Phosphate buffer (50 mM), pH 5.8, RT) was less than 1 µg/mL and the solubility at 24 h ([2]; aqueous buffer, Phosphate buffer (50 mM), pH 6.5, RT) was less than 1 µg/mL. It also gave a solubility at 24 h ([2]; fassgf or other biorelevant, FasSGF, pH 1.6, 37° C.) of less than 1 µg/mL, a solubility at 24 h ([2]; FaSSIF-V2, pH 6.5, 37° C.) of roughly 1.5 µg/mL (≈ 3.15 µM) and a solubility at 24 h ([2]; FeSSIF-V2, pH 5.8, 37° C.) of roughly 4 µg/mL (≈ 8.4 µM).
